From the supplement of paper PMC10307832

Legend:
Assay in all cases: relative viability (nuclei count vs DMSO), 5 days (fraction); higher = more cells survive
[1] = tested on: NCI-H1650
Outline: (§1)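 The day after seeding in 1536-well plates, lung cancer cell lines were treated by pin tool with a single drug, or with a fixed anchor-drug dose together with five library-drug doses (not always all listed) in √10 steps. After 5 days, a combined fix-and-stain solution (final 0.05% Triton X-100, 1% formaldehyde, 1 ug/ml Hoechst) was added. Nuclei counted on 4× images gave relative viability as treated counts over vehicle counts, reported as the median of duplicate plates.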

[2] = tested on: LOU-NH91
Outline: as §1

[3] = tested on: NCI-H2009
Outline: as §1

[4] = tested on: NCI-H2228
Outline: as §1

[5] = tested on: NCI-H838
Outline: as §1

[6] = tested on: NCI-H520
Outline: as §1

[7] = tested on: NCI-H727
Outline: as §1

[8] = tested on: NCI-H1755
Outline: as §1

[9] = tested on: HCC-78
Outline: as §1

[10] = tested on: ABC-1
Outline: as §1

[11] = tested on: NCI-H358
Outline: as §1

[12] = tested on: LK-2
Outline: as §1

[13] = tested on: NCI-H2347
Outline: as §1

[14] = tested on: HCC-366
Outline: as §1

[15] = tested on: NCI-H2405
Outline: as §1

[16] = tested on: NCI-H1355
Outline: as §1

[17] = tested on: UMC-11
Outline: as §1

[18] = tested on: NCI-H1734
Outline: as §1

[19] = tested on: NCI-H1666
Outline: as §1

[20] = tested on: BEN
Outline: as §1

[21] = tested on: SW 1573
Outline: as §1

[22] = tested on: 201T
Outline: as §1

With `CCCCCCCCCCCC1=C(O)C(=O)C=C(O)C1=O` [Embelin] + Cc1nc(Nc2ncc(C(=O)Nc3c(C)cccc3Cl)s2)cc(N2CCN(CCO)CC2)n1 [Dasatinib] (partner 0.075 µM) the relative viability ([1]; first compound 0.08 µM) was 0.348, the relative viability ([1]; first compound 0.8 µM) was 0.408 and the relative viability ([1]; first compound 2.53 µM) was 0.337. For the same compound, the relative viability ([1]; first compound 8 µM) was 0.315, the relative viability ([2]; first compound 0.08 µM) was 0.567 and the relative viability ([2]; first compound 0.8 µM) was 0.624. It also gave a relative viability ([2]; first compound 2.53 µM) of 0.561, a relative viability ([2]; first compound 8 µM) of 0.531 and a relative viability ([3]; first compound 0.08 µM) of 0.342. The relative viability ([3]; first compound 0.8 µM) was 0.487, the relative viability ([3]; first compound 2.53 µM) was 0.243 and the relative viability ([3]; first compound 8 µM) was 0.251. It also gave a relative viability ([4]; first compound 0.08 µM) of 0.503, a relative viability ([4]; first compound 0.8 µM) of 0.618 and a relative viability ([4]; first compound 2.53 µM) of 0.592. It also gave a relative viability ([4]; first compound 8 µM) of 0.396, a relative viability ([5]; first compound 0.08 µM) of 0.312 and a relative viability ([5]; first compound 0.8 µM) of 0.316. It also gave a relative viability ([5]; first compound 2.53 µM) of 0.248, a relative viability ([5]; first compound 8 µM) of 0.224 and a relative viability ([6]; first compound 0.08 µM) of 0.245. It also gave a relative viability ([6]; first compound 0.8 µM) of 0.188, a relative viability ([6]; first compound 2.53 µM) of 0.307 and a relative viability ([6]; first compound 8 µM) of 0.132. It also gave a relative viability ([7]; first compound 0.08 µM) of 0.318, a relative viability ([7]; first compound 0.8 µM) of 0.411 and a relative viability ([7]; first compound 2.53 µM) of 0.492. It also gave a relative viability ([7]; first compound 8 µM) of 0.375, a relative viability ([8]; first compound 0.08 µM) of 0.368 and a relative viability ([8]; first compound 0.8 µM) of 0.49. The relative viability ([8]; first compound 2.53 µM) was 0.379, the relative viability ([8]; first compound 8 µM) was 0.407 and the relative viability ([9]; first compound 0.08 µM) was 0.373. For the same compound, the relative viability ([9]; first compound 0.8 µM) was 0.44, the relative viability ([9]; first compound 2.53 µM) was 0.353 and the relative viability ([9]; first compound 8 µM) was 0.451. It also gave a relative viability ([10]; first compound 0.08 µM) of 0.575, a relative viability ([10]; first compound 0.8 µM) of 0.657 and a relative viability ([10]; first compound 2.53 µM) of 0.528. It also gave a relative viability ([10]; first compound 8 µM) of 0.53, a relative viability ([11]; first compound 0.08 µM) of 0.205 and a relative viability ([11]; first compound 0.8 µM) of 0.136. The relative viability ([11]; first compound 2.53 µM) was 0.171, the relative viability ([11]; first compound 8 µM) was 0.162 and the relative viability ([12]; first compound 0.08 µM) was 0.26. It also gave a relative viability ([12]; first compound 0.8 µM) of 0.427, a relative viability ([12]; first compound 2.53 µM) of 0.304 and a relative viability ([12]; first compound 8 µM) of 0.237. The relative viability ([13]; first compound 0.08 µM) was 0.332, the relative viability ([13]; first compound 0.8 µM) was 0.33 and the relative viability ([13]; first compound 2.53 µM) was 0.296. The relative viability ([13]; first compound 8 µM) was 0.309, the relative viability ([14]; first compound 0.08 µM) was 0.593 and the relative viability ([14]; first compound 0.8 µM) was 0.688. The relative viability ([14]; first compound 2.53 µM) was 0.984, the relative viability ([14]; first compound 8 µM) was 0.557 and the relative viability ([15]; first compound 0.08 µM) was 0.238. It also gave a relative viability ([15]; first compound 0.8 µM) of 0.24, a relative viability ([15]; first compound 2.53 µM) of 0.178 and a relative viability ([15]; first compound 8 µM) of 0.215. The relative viability ([16]; first compound 0.08 µM) was 0.753, the relative viability ([16]; first compound 0.8 µM) was 0.808 and the relative viability ([16]; first compound 2.53 µM) was 0.845. For the same compound, the relative viability ([16]; first compound 8 µM) was 0.586, the relative viability ([17]; first compound 0.08 µM) was 0.45 and the relative viability ([17]; first compound 0.8 µM) was 0.48. It also gave a relative viability ([17]; first compound 2.53 µM) of 0.519, a relative viability ([17]; first compound 8 µM) of 0.437 and a relative viability ([18]; first compound 0.08 µM) of 0.424. It also gave a relative viability ([18]; first compound 0.8 µM) of 0.53, a relative viability ([18]; first compound 2.53 µM) of 0.514 and a relative viability ([18]; first compound 8 µM) of 0.419. The relative viability ([19]; first compound 0.08 µM) was 0.793, the relative viability ([19]; first compound 0.8 µM) was 0.88 and the relative viability ([19]; first compound 2.53 µM) was 0.839. For the same compound, the relative viability ([19]; first compound 8 µM) was 0.852, the relative viability ([20]; first compound 0.08 µM) was 0.355 and the relative viability ([20]; first compound 0.8 µM) was 0.359. For the same compound, the relative viability ([20]; first compound 2.53 µM) was 0.259, the relative viability ([20]; first compound 8 µM) was 0.362 and the relative viability ([21]; first compound 0.08 µM) was 0.406. For the same compound, the relative viability ([21]; first compound 0.8 µM) was 0.637, the relative viability ([21]; first compound 2.53 µM) was 0.458 and the relative viability ([21]; first compound 8 µM) was 0.725. For the same compound, the relative viability ([22]; first compound 0.08 µM) was 0.562, the relative viability ([22]; first compound 0.8 µM) was 0.641 and the relative viability ([22]; first compound 2.53 µM) was 0.519. For the same compound, the relative viability ([22]; first compound 8 µM) was 0.613.
